In US20250034184A1, “QUATERNARY PHOSPHONIUM COMPOUNDS AND USES THEREOF” (Emory University, priority 2021, published 2025):

Columns and labels:
[1] = system: community-acquired methicillin-resistant S. aureus (CA-MRSA; USA 300-0114); assay: microbe, parasite or virus in culture; type: cell-based
[2] = system: Enterococcus faecalis (OG1RF); assay: microbe, parasite or virus in culture; type: cell-based
[3] = system: Pseudomonas aeruginosa (PAO1); assay: microbe, parasite or virus in culture; type: cell-based
[4] = system: methicillin-susceptible S. aureus (SH1000); assay: microbe, parasite or virus in culture; type: cell-based
[5] = system: hospital-acquired methicillin-resistant S. aureus (HA-MRSA; ATCC 33591); assay: microbe, parasite or virus in culture; type: cell-based
[6] = system: Escherichia coli (MC4100); assay: microbe, parasite or virus in culture; type: cell-based

Compound	Minimum Inhibitory Concentration CA-MRSA [1]	Minimum Inhibitory Concentration E. faecalis [2]	fold increase in activity compared to BAC and CPC [2]	Minimum Inhibitory Concentration Pa [3]	fold increase in activity compared to BAC and CPC [3]	Minimum Inhibitory Concentration MSSA [4]	Minimum Inhibitory Concentration HA-MRSA [5]	Lys20 (red blood cell (RBC))	Minimum Inhibitory Concentration E. coli [6]	fold increase in activity compared to its 12-carbon analog [6]
CCCCCCCCCCCCCCCC[P+](c1ccccc1)(c1ccccc1)c1ccccc1 [TPP-16, hexadecyltriphenylphosphonium]	2 µM	4 µM	~63 fold	16 µM	~16 fold	2 µM	4 µM	4 µM	16 µM	
CCCCCCCCCCCCC[P+](c1ccccc1)(c1ccccc1)c1ccccc1 [TPP-13, triphenyl(tridecyl)phosphonium]	1 µM	16 µM		32 µM		1 µM	2 µM	4 µM	4 µM	~63 fold
CCCCCCCCCCCCCC[P+](c1ccccc1)(c1ccccc1)c1ccccc1 [TPP-14, triphenyl(tetradecyl)phosphonium]	2 µM	8 µM		16 µM		2 µM	2 µM	4 µM	16 µM	
CCCCCCCCCC[P+](CC[P+](CCCCCCCCCC)(c1ccccc1)c1ccccc1)(CC[P+](CCCCCCCCCC)(c1ccccc1)c1ccccc1)c1ccccc1 [P2P2P-10,10,10, ((decyl(phenyl)phosphoniodiyl)bis(ethane-2,1-diyl))bis(decyldiphenylphosphonium)]	2 µM	250 µM		>250 µM		2 µM	8 µM	2 µM	32 µM	
CCCCCCCC[P+](CC[P+](CCCCCCCC)(c1ccccc1)c1ccccc1)(CC[P+](CCCCCCCC)(c1ccccc1)c1ccccc1)c1ccccc1 [P2P2P-8,8,8, ((octyl(phenyl)phosphoniodiyl)bis(ethane-2,1-diyl))bis(octyldiphenylphosphonium)]	1 µM	250 µM		>250 µM		2 µM	2 µM	16 µM	250 µM	
CCCCCCCCCC[P+](CC[P+](CCCCCCCCCC)(c1ccccc1)c1ccccc1)(CC[P+](CCCCCCCCCC)(c1ccccc1)c1ccccc1)CC[P+](CCCCCCCCCC)(c1ccccc1)c1ccccc1 [4P-10,10,10,10, ((decylphosphoniotriyl)tris(ethane-2,1-diyl))tris(decyldiphenylphosphonium)]	32 µM	250 µM		>250 µM		16 µM	32 µM	8 µM	250 µM	
CCCCCCCCCC[P+](c1ccccc1)(c1ccccc1)c1ccccc1 [TPP-10, decyltriphenylphosphonium]	2 µM	250 µM		250 µM		1 µM	8 µM	16 µM	250 µM	
CCCCCCCCCCCCCCCC[n+]1ccccc1 [CPC, cetylpyridinium chloride, reference compound]								4 µM		
